Our source for the mutagenic call values is PubChem BioAssay AID1259407 (Chemical Carcinogenesis Research Information System (CCRIS), 2018).

Structures are written as SMILES. Calls of active or inactive are those of the source. No rule for the calls is given here.

This series has as its system CCRIS mutagenicity, Ames/micronucleus/aberration tests. Put plainly: CCRIS mutagenicity studies. The following applies: Test System: AMES SALMONELLA TYPHIMURIUM
Where [1] appears, read: Strain/Indicator: TA98, Metabolic Activation: NONE, Method: PREINCUBATION
Where [2] appears, read: Strain/Indicator: TA100, Metabolic Activation: NONE, Method: PREINCUBATION
Where [3] appears, read: Strain/Indicator: TA98, Metabolic Activation: NONE, Method: STANDARD PLATE.

Turning to `O=[N+]([O-])c1ccc(F)c([N+](=O)[O-])c1`, the mutagenic call is, setting by setting: (Strain/Indicator: TA98(1,8-DNP6), Metabolic Activation: NONE, Method: PREINCUBATION) “active; positive”; (Strain/Indicator: TA98(NR), Metabolic Activation: NONE, Method: PREINCUBATION) “active; positive”; under setting [1], “active; positive”; (Strain/Indicator: TA98, Metabolic Activation: RAT, LIVER, S-9, KANECHLOR 500, Method: PREINCUBATION) “active; positive”; (Strain/Indicator: TA100(NR), Metabolic Activation: NONE, Method: PREINCUBATION) “active; positive”; (Strain/Indicator: TA100/GSH-, Metabolic Activation: NONE, Method: PREINCUBATION) “active; positive”. Besides, the mutagenic call under setting [2] is “active; positive” and the mutagenic call (Strain/Indicator: TA100, Metabolic Activation: RAT, LIVER, S-9, KANECHLOR 500, Method: PREINCUBATION) is “active; positive”.

Take `[Be+2]`: the mutagenic call runs as follows: under setting [1], “inactive; negative”; (Strain/Indicator: TA98, Metabolic Activation: RAT, LIVER, S-9, (10%), Method: PREINCUBATION) “inactive; negative”; under setting [2], “inactive; negative”; (Strain/Indicator: TA100, Metabolic Activation: RAT,LIVER, S-9 (10%), Method: PREINCUBATION) “inactive; negative”.

For `CC(=O)CC(O)(CC(=O)O)C(=O)O` (stereo not drawn), the mutagenic call (Strain/Indicator: TA97, Metabolic Activation: NONE, Method: PREINCUBATION) was “inactive; negative”; the mutagenic call (Strain/Indicator: TA97, Metabolic Activation: S-9, Method: PREINCUBATION) was “inactive; negative”; the mutagenic call (Strain/Indicator: TA102, Metabolic Activation: NONE, Method: PREINCUBATION) is “inactive; negative”; the mutagenic call (Strain/Indicator: TA102, Metabolic Activation: S-9, Method: PREINCUBATION) was “inactive; negative”.

Consider `O=[N+]([O-])c1ccc2[nH]c3ccc([N+](=O)[O-])cc3c2c1`, for which the mutagenic call is “active; positive” (Strain/Indicator: TA98(NR), Metabolic Activation: NONE, Method: STANDARD PLATE); “active; positive” (Strain/Indicator: TA98(NR), Metabolic Activation: RAT, LIVER, S-9, AROCLOR 1254, Method: STANDARD PLATE); “active; positive” under setting [3]; “active; positive” (Strain/Indicator: TA98, Metabolic Activation: RAT, LIVER, S-9, AROCLOR 1254, Method: STANDARD PLATE).

With `Cc1ccc(N=[N+]([O-])c2ccc(C)c([N+](=O)[O-])c2)cc1[N+](=O)[O-]`, the mutagenic call by setting is: (Strain/Indicator: TA98, Metabolic Activation: NONE, Method: SUSPENSION/PLATE) “inactive; negative”; (Strain/Indicator: TA98, Metabolic Activation: RAT, LIVER, S-9, PHENOBARBITAL AND 5,6-BENZOFLAVONE, Method: SUSPENSION/PLATE) “inactive; negative”; (Strain/Indicator: TA100, Metabolic Activation: NONE, Method: SUSPENSION/PLATE) “inactive; negative”; (Strain/Indicator: TA100, Metabolic Activation: RAT, LIVER, S-9, PHENOBARBITAL AND 5,6-BENZOFLAVONE, Method: SUSPENSION/PLATE) “inactive; negative”.

Consider `C=CCc1ccccc1N.[Cl-].[Cl-].[Pd+2]`, for which the mutagenic call is “inactive; negative” (Strain/Indicator: TA92, Metabolic Activation: NONE, Method: STANDARD PLATE); “inactive; negative” under setting [3]; “active; positive” (Strain/Indicator: TA100, Metabolic Activation: NONE, Method: STANDARD PLATE); “active; positive” (Strain/Indicator: TA2410, Metabolic Activation: NONE, Method: STANDARD PLATE).
